The values below come from patent US12150934B2 (Bantam Pharmaceutical, LLC, priority 2016, dated 2024).

The first assay deals with BJAB cells. Description: BJAB cell proliferation (Cell Titer Glo). As to conditions: Homo sapiens, approximately 72 hours. It is filed as cell-based. How it is done:
Cells were seeded in white Corning Costar 96-well assay plates at 2500 cells/well in 50 μL of medium. Serial dilutions of test compounds were made in cell culture medium/FBS+0.2% DMSO, and transferred to assay plates in a volume of 50 μL (DMSO at 0.1% final). Plates were maintained at 37° C. for approximately 72 hours. The effect of compounds on cell proliferation was evaluated using the Cell Titer Glo reagent (Promega), according to the manufacturer's instructions. Briefly, 100 μL of reagent was added per well, and after a 10 minute incubation luminescence values were determined on a plate reader (Tecan F200PRO). The percent of luminescence signal relative to untreated controls was calculated for each compound concentration, and EC50 values were determined from dose response data by non-linear regression analysis using Prism (GraphPad). The mTor inhibitor Torin1 (Liu, et al. (2010) J. Med. Chem. 53, 7146) was used as a control. The data are summarized in the compound table provided above.
(Cellular ATP, detected with luciferase, serves as a proxy for viable cell number.)
For `Cc1nn(C)cc1-c1c(C)nn(-c2nc(-c3ccc(Cl)c(Cl)c3)c(SC(C)C)s2)c1C(=O)O` [Compound 22, 2-(4-(3,4-dichlorophenyl)-5-(isopropylthio)thiazol-2-yl)-2′,5,5′-trimethyl-4,4′-bi(2H-pyrazole)-3-carboxylic acid], the EC50 (usually the concentration at which the effect is half-maximal) was 10 to 25 µM.
Compound `CCC(C)Sc1sc(-n2nc(C)c(-c3cc(C)nc(C)c3)c2C(=O)O)nc1-c1ccc(Cl)c(Cl)c1` (centres unmarked) [Compound 33b] had an EC50 below 1 µM.
As for `CSc1sc(-n2nc(C)c(Cc3ccccc3[N+](=O)[O-])c2C(=O)O)nc1-c1ccc(Cl)c(Cl)c1` [Compound 45, 1-(4-(3,4-dichlorophenyl)-5-(methylthio)thiazol-2-yl)-3-methyl-4-(2-nitrobenzyl)-1H-pyrazole-5-carboxylic acid], the EC50 lay within 25 to 50 µM.
Take `Cc1nn(-c2nc(-c3cc(Cl)cc(Cl)c3)c(SC(C)C)s2)c(C(=O)O)c1-c1cc(Cl)cc(Cl)c1` [Compound 150, 4-(3,5-dichlorophenyl)-1-(4-(3,5-dichlorophenyl)-5-(isopropylthio)thiazol-2-yl)-3-methyl-1H-pyrazole-5-carboxylic acid]: the EC50 lay in the range of 1 to 5 µM.
On the same count and under the same terms, the value for `COCCOc1cc(Cl)cc(-c2c(C)nn(-c3nc(-c4ccc(Cl)c(Cl)c4)c(SC(C)C)s3)c2C(=O)O)c1` [Compound 175, 4-(3-chloro-5-(2-methoxyethoxy)phenyl)-1-(4-(3,4-dichlorophenyl)-5-(isopropylthio)thiazol-2-yl)-3-methyl-1H-pyrazole-5-carboxylic acid] was 1 to 5 µM; that for `Cc1nn(-c2nc(-c3cccc(F)c3)c(SC(C)C)s2)c(C(=O)O)c1-c1cccc(F)c1` [Compound 201a] was 25 to 50 µM; that for `Cc1nn(-c2nc(-c3cc4ccccc4o3)c(SC(C)C)s2)c(C(=O)O)c1-c1cccc(F)c1` [Compound 201b] was 10 to 25 µM.
The same measure, in the same setting: to `Cc1nn(-c2nc(-c3cncc(C#N)c3)c(SC(C)C)s2)c(C(=O)O)c1-c1cccc(F)c1` [Compound 210, 1-(4-(5-cyanopyridin-3-yl)-5-(isopropylthio)thiazol-2-yl)-4-(3-fluorophenyl)-3-methyl-1H-pyrazole-5-carboxylic acid] belongs above 40 µM; to `Cc1nn(-c2nc(-c3ccc(C#N)cc3)c(SC(C)C)s2)c(C(=O)O)c1-c1cccc(F)c1` [Compound 213, 1-(4-(4-cyanophenyl)-5-(isopropylthio)thiazol-2-yl)-4-(3-fluorophenyl)-3-methyl-1H-pyrazole-5-carboxylic acid], 5 to 10 µM.
For `Cc1nn(-c2nc(-c3ccc(Cl)c(Cl)c3)c(F)s2)c(C(=O)O)c1-c1cccc(F)c1` [Compound 227, 1-(4-(3,4-dichlorophenyl)-5-fluorothiazol-2-yl)-4-(3-fluorophenyl)-3-methyl-1H-pyrazole-5-carboxylic acid], the EC50 fell in the range of 10 to 25 µM.
`CCNC(=O)c1cc(-c2nc(-n3nc(C)c(-c4cccc(F)c4)c3C(=O)O)sc2SC(C)C)ccc1Cl` [Compound 243, 1-(4-(4-chloro-3-(ethylcarbamoyl)phenyl)-5-(isopropylthio)thiazol-2-yl)-4-(3-fluorophenyl)-3-methyl-1H-pyrazole-5-carboxylic acid] yielded an EC50 above 40 µM.

The assay is the same for the next values; noted with them: approximately 72 hours.
As for `Cc1nn(-c2nc(-c3ccc(Cl)c(Cl)c3)c(SC(C)C)s2)c(C(=O)O)c1-c1cccc(F)c1` [Compound 151, 1-(4-(3,4-dichlorophenyl)-5-(isopropylthio)thiazol-2-yl)-4-(3-fluorophenyl)-3-methyl-1H-pyrazole-5-carboxylic acid], the “EC50 (BJAB cell proliferation)” value is “A,B”.

A further assay concerns HCT116 cells. Description: Effect on glutathione levels with menadione and N-acetyl cysteine. The following applies: FIG. 3. The class given is cell-based. How it is done:
Effect on Glutathione levels: BJAB and HCT116 cells were maintained in RPMI medium (Wisent) or McCoy's medium (Wisent), respectively. 5000 cells/well were transferred to clear-bottom 96-well assay plates (Thermo Fisher) in a volume of 50 μL. Plates were incubated overnight at 37° C. in 5% CO2, in an unsealed plastic bag with damp paper. Menadione (Sigma) was dissolved in DMSO and diluted in 10% heat inactivated FBS plus culture medium to 20 μM and 5 μM (0.2% DMSO for each). Culture medium was gently aspirated from cells and replaced by 50 μl diluted menadione or 0.2% DMSO for controls. Test compound was diluted to 80 μM (0.2% DMSO) in 10% heat inactivated FBS plus culture medium then diluted further to 5 μM, 1 μM, 0.5 μM and 0.05 μM (in 0.2% DMSO). 50 μL test compound solution was added to each well, with or without menadione. One μL of an N-acetyl cysteine (Sigma) solution at 100 mM in water was added where indicated. Assay plates were incubated for the times indicated at 37° C. 5% CO2 in opened plastic bag with damp paper. Total glutathione levels were determined according to the procedure described above.
Consider `CC1=CC(=O)c2ccccc2C1=O` [menadione], for which the “Glutathione levels in HCT116 cells after treatment” value is on record as “reduction”.

The same assay, now with this note: presence or absence of N-acetyl cysteine, FIG. 3.
As to `CC1=CC(=O)c2ccccc2C1=O` [menadione], the “Effect of N-acetyl cysteine on the reduction of glutathione” value is given as “prevents the reduction”.
